We go through two molecules from patent publication US10617664B2, “Brain derived PPARα ligands” (Rush University Medical Center, priority 2015, dated 2020).

For this assay, the target named is T1, de novo-synthesized PPARα (Mus musculus, UniProt P23204).
T1 construct: infected with lentiviral particles of full-length PPARα and then immunoprecipitation performed; expressed in transfected cells; host or cells: Ppara-null mouse hippocampal neurons, lentiviral transduction
T1 sequence (P23204 1-468): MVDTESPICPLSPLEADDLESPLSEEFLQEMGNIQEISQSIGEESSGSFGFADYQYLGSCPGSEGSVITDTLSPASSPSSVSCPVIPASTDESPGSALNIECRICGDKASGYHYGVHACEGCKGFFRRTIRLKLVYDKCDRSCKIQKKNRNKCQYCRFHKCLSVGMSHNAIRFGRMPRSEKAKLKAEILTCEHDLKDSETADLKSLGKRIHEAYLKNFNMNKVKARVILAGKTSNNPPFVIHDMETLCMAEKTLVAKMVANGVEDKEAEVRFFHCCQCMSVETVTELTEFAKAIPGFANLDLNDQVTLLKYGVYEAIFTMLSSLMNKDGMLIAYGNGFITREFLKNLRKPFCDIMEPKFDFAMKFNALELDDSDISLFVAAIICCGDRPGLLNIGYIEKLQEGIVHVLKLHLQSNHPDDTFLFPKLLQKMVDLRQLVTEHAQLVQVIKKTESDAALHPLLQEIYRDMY
In words: Immunoprecipitation and GC-MS of Ppara-null hippocampal neurons infected with lenti full-length PPARα. Particulars: lenti-FLPara-transduced, not empty lenti-vector. Format: binding. How it is done:
Identification of novel nuclear ligands of PPARα in the hippocampus PPARs are nuclear receptors that require the binding of ligands for activation of gene expression. […] In order to identify these ligands, a gas chromatography mass spectrometric (GCMS) technology was adopted. Briefly, nuclear extracts were prepared form mouse hippocampus, incubated with a GST-tagged PPARα ligand binding domain (LBD), purified with affinity chromatography, reconstituted with chloroform or acetonitrile, and GCMS analyses preformed. (FIG. 1A, FIGS. 7A-C.). […] Therefore, next cultured Ppara-null hippocampal neurons were infected with lentiviral particles of full-length PPARα and then immunoprecipitation performed followed by GCMS analyses (FIG. 1J, FIG. 7G-H). […] The efficiency of gene transduction was measured by immunoblot analyses of cell extract with PPARα antibody (FIG. 7I. In addition, these analyses successfully identified a group of biological ligands of PPARα, which are endogenously produced in the hippocampus. Some of these detected compounds are sulfur-containing unknown compounds such as thiazoles (MW 220-240), thiosemicarbazones (MW 190-200) and thiazolidine esters (MW 250-270) (Table 2). However, these compounds were excluded from this study because of their unknown biosynthetic pathway, relatively poor match-factor (<65), and commercial unavailability. […]

Each structure is given as a SMILES string.

With `CCCCCCCCC=CCCCCCCCC(N)=O` [OCT, 9-octadecenamide], the “binding to de novo-synthesized PPARα (GC-MS)” value is on record as “found to be bound”.
Regarding `CCCCCCCCCCCCCCCC(N)=O` [HEX, hexadecanamide], the “binding to de novo-synthesized PPARα (GC-MS)” value is reported as “found to be bound”.
